Laboratory results taken from the METLIN SMRT retention time set (Domingo-Almenara et al. 2019).

Assay: gradient 5% acetonitrile 3 min, to 50% in 2 min, to 85% in 15 min, held 3 min, 100 µL/min
Conditions: column: Zorbax Extend-C18 2.1 x 50 mm; eluents: water / acetonitrile, 0.1% formic acid
In short: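 The mobile phases were water and acetonitrile, each with 0.1% formic acid, pumped at 100 μL/min through a Zorbax Extend-C18 column (2.1 × 50 mm, 1.8 μm). Pure standards were injected as mixtures of ~100 molecules and detected by a quadrupole time-of-flight mass spectrometer in positive and negative ionization mode. Retention time came from computationally picked adduct peaks, each inspected by hand.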

Row | RP-LC retention time [s] | Compound
1 | 588 | Cc1cnc(C2CN(C3CCCCCC3)C2)n1Cc1ccccc1
2 | 878 | CCn1c(=O)sc2cc(S(=O)(=O)N3CCC(C(=O)Nc4ccccc4)CC3)ccc21
3 | 878 | CCCSCCCNC(=O)c1cc2n(n1)CCCN(Cc1ccccc1)C2=O
4 | 1090 | O=c1c2sccc2n(Cc2nc(-c3cccc(C(F)(F)F)c3)no2)c(=O)n1-c1ccccc1F
5 | 923 | O=C(Cc1csc(SCC(=O)c2cccs2)n1)Nc1ccc(F)c(Cl)c1
6 | 601 | N#Cc1ccc(NC(=O)Cc2cn3cc(F)ccc3n2)cc1
7 | 894 | Cn1ncc2c(N3CCCCC3)nc(C(=O)N3CCN(c4ccc(F)cc4)CC3)nc21
8 | 814 | CC1=C(c2ccc(F)cc2)S(=O)(=O)N=C1N1CCCN(C(=O)CC(C)C)CC1
9 | 714 | O=C(NCc1cccs1)C1CCN(C(=O)C2Sc3ccccc3NC2=O)CC1 (stereo unspecified)
10 | 904 | Cc1nc(-c2ccccc2OC2CN(S(=O)(=O)c3c(C)noc3C)C2)no1
11 | 686 | Cc1nnc(N2CCCC(C(=O)N3CCCCC3)C2)c2nn(-c3ccccc3)c(C)c12 (stereo unspecified)
12 | 794 | Cc1cccc(NC(=O)Nc2nc(C(=O)NCc3cccs3)cs2)c1
13 | 1110 | COc1ccccc1C(=O)Nc1nc(-c2ccccc2)cs1
14 | 917 | Cc1nc(-c2ccccc2)cc2nn(CC(=O)N(C)c3ccccc3)c(=O)n12
15 | 603 | CCOC(=O)c1c(C)[nH]c(C(=O)N2CCCC(C(=O)NCCN3CCCC3)C2)c1C (stereo unspecified)
16 | 585 | CCN1CCC2(CC1)CN(Cc1cccc(Cl)c1)Cc1ccccc1O2
17 | 1030 | COc1ccc2c(c1)OC1(C)CC2C(S(=O)(=O)c2ccc(C)c(C)c2)C(=O)N1C (stereo unspecified)
18 | 747 | CCc1ccc(CNC(=O)C2CCN(c3cnc4nccnc4c3)CC2)cc1
19 | 629 | O=C(NCC1CCCCC1)C1(CCO)CCN(c2ncccn2)C1 (stereo unspecified)
20 | 783 | Cc1ccc(Cl)cc1NC(=O)Cn1cnc2nc3c(cc2c1=O)CCCC3
21 | 987 | Cc1ccccc1Cn1nc2c(S(=O)(=O)N3CCc4ccccc4C3)cccn2c1=O

Row | RP-LC retention time [s] | Compound
22 | 877 | COc1ccc(CCNC(=O)c2c(N3CCCC3=O)c3cc(OC)ccc3n2C)c(OC)c1
23 | 870 | CCS(=O)(=O)N1CCCc2cc(C(=O)NC(C)c3ccccc3)ccc21 (stereo unspecified)
24 | 764 | CN(CC1CCOC1)C(=O)Nc1cc(F)c(F)c(F)c1 (stereo unspecified)
25 | 700 | Cc1ccc(NC(=O)Cc2nnc(-c3cnccn3)o2)c(C)c1
26 | 958 | N#Cc1cccc(NC(=O)Cn2cccc(-c3nc(-c4ccc(Br)cc4)no3)c2=O)c1
27 | 567 | Cc1noc2ncnc(N3CCC(C(=O)NCCN(C)C)CC3)c12
28 | 581 | CCN1CCN(c2ncc(C(=O)Nc3c(F)cc(F)cc3Br)c3ccccc23)CC1
29 | 1100 | CCOC(=O)c1ccccc1NC(=O)C1CCCN(c2cc(-n3cccn3)ncn2)C1 (stereo unspecified)
30 | 523 | Nc1ncnc2c1nc(Cl)n2C1OC2COP(=O)(O)OC2C1O (stereo unspecified)
31 | 1100 | O=C(CSC1=N/C(=C/c2ccc3c(c2)OCO3)C(=O)N1c1ccccc1)c1ccccc1
32 | 1020 | CC(C)Oc1ccc(NC(=O)C2CCN(S(C)(=O)=O)c3cc(Cl)ccc3O2)cc1 (stereo unspecified)
33 | 940 | C=CCn1c(=O)c2ccccc2n(Cc2nc(-c3ccccc3OC)no2)c1=O
34 | 583 | O=C(NCC1CCCO1)C(=O)NCC(c1ccc2c(c1)OCO2)N1CCOCC1 (stereo unspecified)
35 | 1050 | O=C(Nc1ccccc1Cl)c1cn(CC2CCCO2)cc2c(=O)n(-c3ccccc3)nc1-2 (stereo unspecified)
36 | 558 | CN(CCNC(=O)NCc1noc2ccccc12)C1CCCCC1
37 | 611 | CC(C(=O)NCCCN1CCCCCC1)n1c(=O)c(C(F)(F)F)nc2ccccc21 (stereo unspecified)
38 | 758 | Cn1c(=O)c2nc(S(=O)(=O)CCC(=O)Nc3ccc(F)c(F)c3)n(C)c2n(C)c1=O
39 | 785 | O=C(NCC(O)c1ccc(C(F)(F)F)cc1)C1(c2ccccc2)CCOCC1 (stereo unspecified)
40 | 644 | CCOC(=O)c1cccc(NC(=O)N2CCN(c3nc4ccccc4n3C)CC2)c1
41 | 752 | CN(C)c1ccc(NC(=O)Cn2cccc2-c2nc(-c3ccc4c(c3)OCO4)no2)cc1
42 | 873 | Cc1cc(C)cc(OCc2nc(CCN(C)C(=O)c3ccco3)no2)c1

Row | RP-LC retention time [s] | Compound
43 | 841 | CCOC(=O)c1c(S(=O)(=O)N2CCC(C(=O)NCc3ccc(C)cc3)CC2)c(C)n(C)c1C
44 | 947 | COc1ccc(-n2c(=O)c(C(=O)NCC3CCCO3)c(O)c3cccnc32)cc1 (stereo unspecified)
45 | 631 | Fc1ccc(OCCc2noc(C3CCCN3)n2)cc1 (stereo unspecified)
46 | 809 | O=C(c1ccc(Cl)cc1)N1CCN(c2cc(-c3cccs3)[nH]n2)CC1
47 | 823 | COc1ccccc1-c1nnc2sc(-c3cc(C)on3)nn12
48 | 577 | Cc1cc2n(n1)CCCN2C(=O)CCC(=O)N1CCN(Cc2ccc3c(c2)OCO3)CC1
49 | 602 | Cc1nncn1C1CN(C(=O)c2ccc(N(C)C)cc2)C1
50 | 653 | CCCN1CCN(c2cc(C(=O)O)c3cc(NS(=O)(=O)c4cc(C)c(C)cc4C)ccc3n2)CC1
51 | 813 | CC(=O)N(CC(=O)N1CCc2sccc2C1COc1ccc(F)cc1)CC1CCCO1 (stereo unspecified)
52 | 794 | COc1ccc(NS(=O)(=O)c2cc(-c3nc(C)c(C(=O)N4CCCC4)s3)n(C)c2)c(OC)c1
53 | 676 | O=C(Nc1ccc2cn[nH]c2c1)C1(c2ccccc2)CCOCC1
54 | 833 | CC(C)CCNC(=O)C1(C)Cn2nc(C(=O)NCC(C)c3ccccc3)cc2C(=O)N1C (stereo unspecified)
55 | 926 | CCn1nccc1C(=O)Nc1nc(-c2ccc(OC)cc2OC)cs1
56 | 852 | COc1ccc(-c2noc(CNC(=O)Nc3ccc(Cl)cc3)n2)cc1OC
57 | 722 | O=C(c1cnccn1)N1CCN(c2cc(-c3ccc(Cl)cc3)[nH]n2)CC1
58 | 807 | COc1ccc(C)cc1NC(=O)NCCn1c(C(F)(F)F)nc2cccnc21
59 | 656 | CCN(CC)S(=O)(=O)c1cccc(-c2cn3ccc(C)cc3n2)c1
60 | 579 | COc1ccc(-c2ccc(CNCC3CCNCC3)o2)cc1Cl
61 | 726 | CC1CCN(S(=O)(=O)c2ccc(-c3nnc(C(=O)NCCN4CCCCCC4)o3)cc2)CC1
62 | 931 | COc1cccc(C(=O)CSc2ccc(-n3nc(C)cc3C)nn2)c1
63 | 882 | O=C(COc1ccc(F)cc1)Nc1cc(F)c2nc(N3CCOCC3)ccc2c1

Row | Compound | RP-LC retention time [s]
64 | COc1ccc(NC(=O)C2c3ccccc3C(=O)N3CCC(C)CC23)c(OC)c1 (stereo unspecified) | 867
65 | O=C(c1nc(Cn2nc(-c3ccc(F)cc3)ccc2=O)no1)N1CCC2(CC1)OCCO2 | 783
66 | CN1[C@@H]2CC[C@H]1CC(OC(=O)C(CO)c1ccccc1)C2 (stereo partly specified) | 613
